Results on four compounds are retold here after US8017828B2, “Utilization of rare sugars in plant or microorganism” (Shikoku Research Institute Incorporated, priority 2004, dated 2011).

SMILES strings stand for the structures.

Test [1] deals with Fusarium oxysporum, Glomerella cingulata, Verticillium dahliae and Botrytlis cinerea. In words: Mycelial elongation of plant pathogenic bacteria on agar with rare sugar. Conditions: 0.05% (w/v) in agar medium, 23° C., 7 days. Format: cell-based. The method, then: By using as targets, Fusarium oxysporum, Glomerella cingulata, Verticillium dahliae and Botrytlis cinerea, which are typical plant pathogenic bacteria, an effect of a rare sugar on mycelial elongation was examined.
As the test bacterial strains, IFO 31213 strain, IFO 6425 strain, IFO 9765 strain and IFO 9760 strain were used.
After the cultivation, the length of the extending mycelium was measured.

In the next test the test system is Cymbidium. The test is described as follows: Growth of Cymbidium flask seedlings in tissue culture. Format: in vivo. The conditions noted are these: 0.005% in MS medium; for Number of lateral buds: non 0; for Aerial part weight: non 2.1; for Underground part weight: non 3.8; for Number of roots: non 10.8. The source says: Flask seedlings of Phalaenopsis orchid and Cymbidium obtained by tissue culture were used in an experiment.
As for Cymbidium, in the same manner as the above Phalaenopsis orchid, MS medium supplemented with D-psicose, D-glucose, D-fructose or D-allose was used, and the flask seedlings were aseptically transplanted on Oct. 4, 2004. At this time, 4 or 5 leaves and 2 roots were left and the rest of them were cut off using a knife. As for the number of seedlings, 4 seedlings were used for 1 test plot, and glass bottles with a capacity of 900 ml and having a hole with a diameter of about 1 cm for preventing dew condensation made in the upper region was used as culture containers. The cultivation was carried out in a culture chamber at 25° C. and 5,000 Lux (12-hour day length) Then, on Feb. 1, 2005, a survey was carried out with regard to the growth conditions of aerial part and underground part, the number of roots and the number of lateral buds. The results are shown in Table 9 (effect of addition of rare sugar on the growth of seedlings of Cymbidium).

Test [2] concerns strawberry plant (variety: “smile ruby”). In words: Growth of strawberry seedlings in tissue culture medium with sugar. The conditions noted are these: increased (high) concentration in medium. It is filed as in vivo.
In test [3] the test system is cherry tomato plant “petite”. The test is described as follows: Hydroponic growth of cherry tomato with 0.05 or 0.5 mM sugar, 40 days. Conditions: until 40 days; for stem length, rank among 7 treated plots: 0.05 mM. Format: in vivo. The method, then: Further, on Dec. 18, 2003, a cherry tomato plant “petite” was transplanted for permanent planting to a hydroponic apparatus, and a total of 7 treated plots in which a plot without addition was added to 6 treated plots with the use of a nutrient solution supplemented with 0.05 mM or 0.5 mM D-psicose, D-fructose or mannitol were prepared. A survey was carried out with regard to the growth until 40 days after the permanent planting. As a result, the stem length was the shortest in the cases of 0.05 mM D-psicose and 0.05 mM D-fructose. Although a significant difference in the stem diameter was not observed among treated plots, however, a tendency was observed that the stem was slightly thinner in the treated plot of any of the sugars at a high concentration. A significant difference in the number of leaves was not observed among treated plots.

For test [4], the system named is seeds of vegetables, ornamental plants, herbs, fruit trees, grains and feed crops. The test is described as follows: Seed germination, continuous treatment (Experiment 1). It is filed as in vivo. From the text:
Seeds of vegetables (11 families and 51 species or varieties); ornamental plants (19 families and 47 species or varieties); […] (4 families and 14 species or varieties); fruit trees (3 families and 3 species or varieties); grains (1 family and 3 species or varieties); and feed crops (1 family and 3 species or varieties) were continuously treated with any of 4 types of solutions of deionized water (control), 1% D-fructose, 1% D-psicose and 0.5% D-fructose+0.5% D-psicose and germinated under the condition of 25° C., 35 μmol·m^−2·s^−1, and 16-hour lighting or 16-hour dark. As for the number of seeds, 50 seeds were used for each solution basically, and when the number of seeds was small, the seeds were distributed in such a manner that the number of seeds for each solution became equal. The seeds were sown in a dish with a diameter of 9 cm having a filter paper placed therein or when the seeds were large, they were sown in a styrol container with a diameter of 10 cm and a height of 45 mm. Then, 10 ml or 50 ml of any of the solutions was poured therein, and deionized water was suitably added depending on the transpiration.

Test [5] deals with rice plant (variety: “Hinohikari”). In words: Foliar spraying of sugar on pot-grown rice. It is filed as in vivo. How it is done:
After seeds of a rice plant (variety: “Hinohikari”) were put in a nylon net and subjected to sterilization and a germination induction treatment in a growth chamber at 30° C. for 2 days while they were soaked in 0.1% (w/v) Benlate (Hokko Chemical Industry Co., Ltd.) in accordance with a common method, they were sown in a nursery tray filled with “Kumiai Ryujou Baido SD” (Kureha Chemical Industry Co., Ltd.) and raised in a phytotron (day temperature: 25° C. and night temperature: 18° C.) for about 2 weeks. Then, Wagner pots with a size of 1/5,000a were filled with “Kumiai Ryujou Baido SD” (Kureha Chemical Industry Co., Ltd.) and the raised rice seedlings were transplanted for permanent planting to the pots and the cultivation was started on Jul. 2, 2003 in the open air under the condition that the soil was covered with water in the pots. From Jul. 16, 2003, when the seedlings were confirmed to take root, water, a 0.02% (w/v) sugar solution, a 0.1% (w/v) sugar solution or a 0.5% (w/v) sugar solution was sprayed onto the whole plant on a three times weekly basis. As for the types of sugars, D-glucose, D-fructose and D-psicose were used and three pots were cultivated for each test plot. The cultivation was continued in such a manner that the water in pots was not dried up and after 5 g of Magamp K medium (HYPONeX JAPAN CORP., Ltd.) per pot was added as additional fertilization on Aug. 29, 2003, and the harvest and survey were carried out on Sep. 22, 2003. The survey items were plant length, number of tillers, leaf weight, husk weight, underground part weight and the like.

Another test relates to Primula. In words: Drying stress of Primula after foliar spraying. It is filed as in vivo. Conditions: foliar spraying of 0.2% (w/v) solution. The method, then: By using Primula, an effect of spraying D-psicose on a drying stress was examined. By using commercially available Primula planted in a pot, foliar spraying of water, a 0.2% (w/v) D-glucose solution or a 0.2% (w/v) D-psicose solution was carried out on the whole plant. After irrigation was sufficiently carried out from the lower part of the pot, the plant was left in a condition that no irrigation was carried out, and a wilted condition thereof was observed.

Setting [6] is: 1% continuous, 41 species listed.

For the compound `O=C[C@H](O)[C@H](O)[C@H](O)[C@H](O)CO` [D-allose], the “inhibitory effect on mycelial elongation” value in test [1] is listed as “has an effect on inhibiting mycelial elongation”. Besides, in the test with Cymbidium, the “Number of lateral buds” value is listed as 3.8 buds, the Aerial part weight came out at 2.7 g, the Underground part weight worked out at 4.0 g and the Number of roots is 12.8 roots. Moreover, the “growth when the concentration added to the medium was increased” value in test [2] was “the growth thereof was delayed”.

For `O=C(CO)[C@@H](O)[C@H](O)[C@H](O)CO` [D-fructose, reference compound], the “stem length, rank among 7 treated plots” value in test [3] is “the shortest”. Further, the “effect on inhibition of germination by D-psicose” value in test [4] (0.5% D-fructose+0.5% D-psicose, 32 species listed) is “Mitigated”. Further, the germination result in test [4] (setting [6]) is on record as “Inhibited”. In addition, in test [4] (1% continuous, Lemon Balm and Green Pea (2 species)), the germination result is listed as “Promoted”. In test [5] (0.02% sugar solution sprayed), this compound gave a Dry husk weight of 16.8 g, a Dry leaf weight of 43.3 g, a Number of tillers of 29.3 and a Plant length of 85.7 cm. In test [5] (0.10% sugar solution sprayed), this compound had a Dry husk weight of 16.1 g, a Dry leaf weight of 41.0 g, a Number of tillers of 29.3 and a Plant length of 84.3 cm. In test [5] (0.50% sugar solution sprayed), this compound registered a Dry husk weight of 17.2 g, a Dry leaf weight of 36.4 g, a Number of tillers of 27.0 and a Plant length of 85.7 cm. Also, in the test with Cymbidium, the “Number of lateral buds” value turned out to be 0 buds, the Aerial part weight came to 2.0 g, the Underground part weight is 3.8 g and the Number of roots amounted to 10.0 roots.

In test [5] (0.02% sugar solution sprayed), `O=C[C@H](O)[C@@H](O)[C@H](O)[C@H](O)CO` [D-glucose, reference compound] yielded a Dry husk weight of 17.2 g, a Dry leaf weight of 34.0 g, a Number of tillers of 29.3 and a Plant length of 74.0 cm. In test [5] (0.10% sugar solution sprayed), this compound registered a Dry husk weight of 17.6 g, a Dry leaf weight of 35.5 g, a Number of tillers of 30.0 and a Plant length of 75.5 cm. Moreover, in test [5] (0.50% sugar solution sprayed), the Dry husk weight is on record as 17.9 g, the Dry leaf weight turned out to be 37.3 g, the Number of tillers was determined as 31.3 and the Plant length was 74.8 cm. For the same compound, in the test on Cymbidium, the “Number of lateral buds” value worked out at 0 buds, the Aerial part weight is 1.9 g, the Underground part weight was 2.9 g and the Number of roots is reported as 9.5 roots. The “time until wilt of the whole plant without irrigation” value in the test on Primula is given as “one day”.

With `O=C(CO)[C@H](O)[C@H](O)[C@H](O)CO` [D-psicose], the “stem length, rank among 7 treated plots” value in test [3] is “the shortest”. The “underground part weight, rank among 7 treated plots” value in test [3] (0.5 mM) is on record as “the smallest”. Also, in test [1], the “inhibitory effect on mycelial elongation” value is recorded as “has an effect on inhibiting mycelial elongation”. The germination entry in test [4] (1% continuous, 32 species listed) was “Inhibition of Germination”. Moreover, the germination entry in test [4] (setting [6]) is reported as “Inhibited”. Moreover, the elongation of roots result in test [4] (1% continuous, Diospyros kaki) was “inhibited”. The germination result in test [4] (1% continuous, Myosotis scorpioides and Chinese lantern plant (2 species)) is given as “Significantly Inhibited”. In test [4] (1% continuous, Salsola komarovii, Diospyros kaki, Clarkia amoena (3 species)), the germination entry is reported as “Not Affected or was Promoted Slightly”. The germination result in test [4] (many plants in the Brassica family) was “inhibited”. In test [5] (0.02% sugar solution sprayed), this compound displayed a Dry husk weight of 16.8 g, a Dry leaf weight of 36.3 g, a Number of tillers of 33.7 and a Plant length of 73.2 cm. In test [5] (0.10% sugar solution sprayed), the Dry husk weight turned out to be 14.7 g, the Dry leaf weight is 31.8 g, the Number of tillers stood at 33.5 and the Plant length was 76.3 cm. Moreover, in test [5] (0.50% sugar solution sprayed), the Dry husk weight is 10.2 g, the Dry leaf weight came out at 27.9 g, the Number of tillers is 50.0 and the Plant length is given as 71.3 cm. Further, in the test on Cymbidium, the “Number of lateral buds” value was 0.5 buds, the Aerial part weight turned out to be 2.0 g, the Underground part weight is 4.1 g and the Number of roots is listed as 10.8 roots. Further, in test [2], the “growth when the concentration added to the medium was increased” value is reported as “the growth thereof was delayed”. Besides, the “time until wilt of the whole plant without irrigation” value in the test with Primula came out at 2 days.
